# In patent US9464972B2, “Apparatus and procedure for in vitro measurement of a substance, nicotine, released from a smokeless tobacco product” (priority 2011, dated 2016):
# Like-named read-outs stand apart in the source and are kept apart here.
# Details: for nicotine release (accumulated, of total nicotine): artificial saliva Table 3, pH 5.8, 37° C., flow 4 ml/min
# From the text: The nicotine extraction and collection procedure include the following steps:
# 1. Add fluid (140) to the reservoir (120). Fluid (140) is artificial saliva where the extraction is nicotine from a smokeless tobacco product;
# 2. Set the bath (200) and the heating or cooling element (220) temperature control (230) to the temperature desired as established from the in vivo environment. Where the fluid (140) is artificial saliva and, for the measurement of nicotine in a smokeless tobacco product, set the temperature to 37° C.;
# 3. Start the fluid pump (180) and set the pump to the desired pump rate.
# 4. When the temperature and flow rate are stabilized, add the product sample (330) to extraction bottle interior (304) onto the screen mesh (325). Where the product sample is for a smokeless tobacco product sample (330) the product sample (330) is a smokeless tobacco sachet; the product sample (330) is placed onto the screen mesh (325) in alignment with the supply tube (310);
# 5. The fluid (140) from the supply tube (310) is flowed or dripped onto the product sample (330) producing an extract (1000) from the combination of the fluid (140) and the sample (330) which is drained from the extraction bottle (300) by a collection tube (335) and is then deposited into at least one collection bottle (400) at intervals determined by experimental design. Where the product sample (330) is a smokeless tobacco product sample (330) 1−n collection bottles (400) will used with bottles (400) changed at intervals of 1-5 min based on experimental design;
# 6. Extract the residual element from the product sample (330) by placing the product sample (330) in solvent effective for the type of product sample (330); where the product sample (330) is a smokeless tobacco product, the solvent in the preferred embodiment is 20 to 50 ml ethanol:5% NaOH mixture (9:1), and extract with ultrasound for 30 min.
# 7. Measure the target element in the extract (1000) by use of a measuring instrument suitable for the attributes of the target element in the extract (1000); for the preferred embodiment when the target element is nicotine from a smokeless tobacco product the measuring instrument is high-performance liquid chromatography (HPLC); the extract (1000) of nicotine in artificial saliva and the residual nicotine from ethanol NaOH mixture are determined using HPLC in the following conditions: • 1. Chromatograph column is a C18 reverse phase column • 2. Mobile phase is methanol and 20 mmol phosphate buffer (23:77, volume to volume) with 0.2% Triethylamine, pH=6.0 • 3. Flow rate is 1 ml/min • 4. Column temperature is 35° C.
# Artificial saliva temperature was maintained at 37° C., pump flow rate 1 ml/min. Artificial saliva was made using the formula in Table 1, with a pH of 6.7. The artificial saliva collection intervals were at 1, 2, 3, 4, 5, 6, 7, 8, 9, 10, 12, 14, 16, 18, 20, 24, 28, 32 minutes after the extraction started.
# Artificial saliva temperature was maintained at 37° C., pump flow rate 2 ml/min. Artificial saliva was made using the formula in Table 2, with a pH of 7.0. The artificial saliva collection intervals were at 1, 2, 3, 4, 5, 6, 7, 8, 9, 10, 12, 14, 16, 18, 20, 22, 24, 26, 28, 30 minutes after the extraction start.
# Artificial saliva temperature was maintained at 37° C., pump flow rate 4 ml/min. Artificial saliva was made using the formula in Table 3, with a pH of 5.8. The artificial saliva collection intervals were at 2, 4, 6, 7, 8, 10, 12, 14, 16, 18, 20, 24, 28, and 32 minutes after the extraction start.
smiles,measurement,setting,value
CN1CCCC1c1cccnc1 (centres unmarked) [nicotine],nicotine collected,"Example 1: 20 to 32 min extraction period, artificial saliva Table 1, pH 6.7, 37° C., flow 1 ml/min",very little
same,"nicotine released from tobacco (accumulated, of total nicotine)","Example 1: after 20 min of extraction, artificial saliva Table 1, pH 6.7, 37° C., flow 1 ml/min",over 90%
same,average rate of nicotine release,"Example 1: first 5 minutes, artificial saliva Table 1, pH 6.7, 37° C., flow 1 ml/min, smokeless tobacco sachet",approximately 10%
same,average rate of nicotine release,"Example 1: from 6 min to 10 min, artificial saliva Table 1, pH 6.7, 37° C., flow 1 ml/min",approximately 4.3%
same,average rate of nicotine release,"Example 1: from 11 min to 20 min, artificial saliva Table 1, pH 6.7, 37° C., flow 1 ml/min",approximately 1%
same,nicotine collected,"Example 2: 20 to 30 min extraction period, artificial saliva Table 2, pH 7.0, 37° C., flow 2 ml/min",very little
same,nicotine released (of total nicotine),"Example 2: first 5 minutes, artificial saliva Table 2, pH 7.0, 37° C., flow 2 ml/min",64%
same,"nicotine released from tobacco (accumulated, of total nicotine)","Example 2: first 20 min of extraction, artificial saliva Table 2, pH 7.0, 37° C., flow 2 ml/min",over 95%
same,"nicotine released (additional, of total nicotine)","Example 2: from 6 min to 10 min, artificial saliva Table 2, pH 7.0, 37° C., flow 2 ml/min",20%
same,"nicotine release (accumulated, of total nicotine)",Example 3: first 6 min,82%
same,"nicotine release (accumulated, of total nicotine)",Example 3: first 10 min,92%
